# Patent publication US11684592B2, “Multiresistant-tumour sensitiser” (Instituto Nacional de Neurologia Y Neurocirugia Manuel …, priority 2017, dated 2023)
# Legend:
# C6 cells = experiment: Determination of Reactive Oxygen Species (ROS); format: cell-based, rat; details: 1 hour
# Method: Intracellular generation of ROS was evaluated in real time by fluorescence microscopy using the ENZ-51011 detection kit (Enzo® Life Sciences). 5×10^3 cells per well were grown in half-area 96 wells plates (Costar 3595®) and incubated for 24 hours. Then, were incubated for 1 hour, with curcumin (2, 15, 30 or 100 μM), or Cur-[G2]-OH (6, 45, 90 or 300 μM) alone or in the presence of the ROS inhibitor N-Acetyl Cysteine (NAC, 400 μM) according to the manufacturer's instructions. As controls, pyocyanin (200 μM) was used as an inducer and NAC […] as an inhibitor, or DMEM medium with or without DMSO as a negative control. At the end of treatment, the test solutions were withdrawn, and the ROS detection solution was added. The plates were observed under bright field and fluorescence microscopy with the GFP filter (λ=469-525 nm), in the Cytation 3® multimodal reader (BioTek®, USA), and the images were captured and analyzed with the Gen5 2.06 program (BioTek®, USA). The experiments were performed five times.
# C6 cells from rat glioma [1] = experiment: DNA fragmentation assay; format: cell-based; details: curcumin 100 μM or Cur-[G2]-OH 300 μM, 24 h
# Method: To determine DNA fragmentation, C6 cells (1×10^6) were seeded in Petri dishes (100 mm) at a confluence of 70%. They were treated with curcumin (100 μM) or Cur-[G2]-OH (300 μM) and incubated for 24 and 48 hours. Controls were incubated with vehicle only (DMSO or PBS respectively).
# The DNA was extracted using Trizol (Invitrogen® 15596-026), according to the supplier's specifications, and quantified on a spectrophotometer (Genesys 8®). 20 μg of DNA from each sample was deposited on a 1.5% agarose gel. Electrophoresis was performed at 100 V for 90 minutes. The gel was stained with the Hydragreen™ dye (ACTGene ACT-IDM604) and DNA detection was performed using the ethidium bromide filter and UV light on the Chemidoc-It TS2 imager photodocument (UVP, CA).
# [2] = tested on: Beclin-1, p62, Nrf2, eIF2a and p-eIF2α in C6 cells; experiment: Analysis of autophagy markers and Nrf2 pathway by Western blot; format: cell-based, rat; details: curcumin 2, 15 and 30 μM or Cur-[G2]-OH 6, 45 and 90 μM, 24 h
# Method: C6 cells were grown in 25 cm^2 culture bottles (Corning® N.Y.) to form a 70% confluent monolayer (approximately 4×10^6 cells) and treated with Cur-[G2]-OH (300 μM) for 24 hours. The cells were washed in cold PBS, and lysis buffer (50 mM Tris-HCl, 120 mM NaCl, 0.01% IGEPAL) was added with a protease inhibitor cocktail (Sigma® P8340) and centrifuged to recover the supernatant. Proteins were quantified by the Lowry method (Lowry et al. 1951).
# […] The membranes were blocked with skim milk and subsequently incubated with the respective primary antibody (Beclin1, ab62557; p62, ab91526; Nrf2, sc-30915; p-eIF2α, sc-12412; eIF2, sc-11386 or β-actin, sc-47778) under stirring overnight at 4° C. After incubation, the membranes were washed with a Tween 20 tris-base saline buffer (TBST) and incubated with the respective secondary antibody conjugated to horseradish peroxidase (SIGMA). The bands were visualized by chemiluminescence with the Western Blotting Luminol Reagent reagents (Santacruz Biotechnology®), and the ChemiDoc-It® TS2 Imaging System (UVP, LLC).
# C6 cells from rat glioma [3] = experiment: Determination of apoptotic death by dual staining with propidium iodide and Hoechst 33342; format: cell-based; details: curcumin 100 μM or Cur-[G2]-OH 300 μM, 24 or 48 hours
# Method: C6 cells from rat glioma (American Tissue Culture Collection, Rockville, Md., U.S.A. ATCC® CCL-107™) cultured under standard conditions in DMEM medium supplemented with Bovine Fetal Serum and 15% horse serum were used for the experiments.
# 1×10^4 C6 cells/well were cultured with 100 μl of Dulbecco's Modified Eagle's Medium (DMEM) medium for 24 hours in 96-well plates. The cells were treated with curcumin (100 μM), or with Cur-[G2]-OH (300 μM), or with the respective vehicle as a control. After 24- or 48-hours post-treatment, the cells were fixed with a mixture of methanol/acetone (1:1) and stained with propidium iodide (0.5 μg/ml), washed and Hoechst 33342 dye was added (0.1 μg/ml) for staining the nuclei. Cells were observed on the Cytation 3® plate reader (BioTek® Instruments, Inc.) using the DAPI (λ=377-447 nm) and Texas Red (λ=586-647 nm) filters, and the images were captured and analyzed with the Gen5 2.06® program.
smiles,measurement,setting,value
"COc1cc(/C=C/C(=O)CC(=O)/C=C/c2ccc(O)c(OC)c2)ccc1O [curcumin, reference compound]",generation of ROS,"C6 cells; curcumin 2, 15, 30 or 100 μM or Cur-[G2]-OH 6, 45, 90 or 300 μM, without NAC",less effective at producing ROS
same,generation of ROS in the presence of N-acetyl Cysteine (NAC),C6 cells; with NAC 400 μM,slightly amplified with the use of NAC
same,DNA fragmentation (agarose gel electrophoresis),C6 cells from rat glioma [1],DNA fragmentation was only evident in cells treated with curcumin
same,levels of total eIF2-α (immunoblot),[2],increases both the levels of total eIF2-α
same,"phosphorylation of eIF2-α (p-eIF2-α, immunoblot)",[2],"increases both the levels of total eIF2-α, and the levels of p-eIF2α"
same,nuclear staining / apoptotic morphology (propidium iodide and Hoechst 33342),C6 cells from rat glioma [3],"chromatin condensation (stars), nuclear fragmentation (thin arrows) and apoptotic bodies (arrowheads)"
